Results from US20070197632A1, “Aminocyclohexyl ether compounds and uses thereof” (Cardiome Pharma Corp, priority 2003, published 2007).
Where a name gives a salt, the structure may show the parent alone. Read-outs that look alike come from different tables or passages of the source.

Key:
conscious rats [1] = assay: Determination of CNS toxicity: convulsions in conscious rats under intravenous infusion; details: Table 5, comparative example compounds; for convulsion dose: minimum iv infusion rate at which partial or complete convulsions are observed; for cum conv dose: total amount of drug infused when convulsions are first observed
conscious rats [2] = details: rat, in vivo, iv

Cl.FC(F)(F)c1ccccc1CCO[C@H]1CCCC[C@H]1N1CCOCC1 (racemic) [Comparative Example Compound 42, (1R,2S)/(1S,2R)-2-(4-morpholinyl)-1-[(2-trifluoromethyl)-phenethoxy]-cyclohexane monohydrochloride]
convulsion dose (conscious rats [1]): 16 µmol/kg/min

COc1ccc(CCOC2CCCC[C@H]2N2CCOCC2)cc1OC (stereo partly drawn) [Comparative Example Compound 9, hydrochloride]
convulsion dose (conscious rats [1]): 16 µmol/kg/min | cum conv dose (conscious rats [1]): 113 µmol/kg

COc1ccc(CCO[C@H]2CCCCC2N2CCC3(C2)OCCO3)cc1OC (stereo partly drawn) [Comparative Example Compound 10, monohydrochloride]
convulsion dose (conscious rats [1]): 16 µmol/kg/min | cum conv dose (conscious rats [1]): 91.33 µmol/kg

COc1ccc(CCO[C@H]2CCCCC2N2CCCC2)cc1OC (stereo partly drawn) [Comparative Example Compound 17, monohydrochloride]
convulsion dose (conscious rats [1]): 21.33 µmol/kg/min | cum conv dose (conscious rats [1]): 118 µmol/kg

COc1ccc(CCOC2CCCC[C@H]2N2CCC(=O)C2)cc1OC.Cl (stereo partly drawn) [Comparative Example Compound 18, 1-{(1R,2R)/(1S,2S)-2-[2-(3,4-dimethoxyphenyl)-ethoxy]cyclohexyl}-pyrrolidin-3-one hydrochloride]
convulsion dose (conscious rats [1]): 32 µmol/kg/min

COc1ccc(CCOC2CCCC[C@H]2N2CCN(C(=O)Cc3ccc(OC)c(OC)c3)CC2)cc1OC.Cl.Cl (stereo partly drawn) [Comparative Example Compound 22, 1-[(3,4-dimethoxyphenyl)acetyl]-4-{(1R,2R)/(1S,2S)-2-[2-(3,4-dimethoxyphenyl)-ethoxy]cyclohexyl}-piperazine hydrochloride]
convulsion dose (conscious rats [1]): 21.33 µmol/kg/min | cum conv dose (conscious rats [1]): 133 µmol/kg

Cl.OC1CCN(C2CCCC[C@@H]2OCCc2c(Cl)cccc2Cl)C1 (stereo partly drawn) [Comparative Example Compound 23, (3R)/(3S)-1-{(1R,2R)/(1S,2S)-2-[2-(2,6-dichlorophenyl)-ethoxy]cyclohexyl}-pyrrolidin-3-ol hydrochloride]
convulsion dose (conscious rats [1]): 8 µmol/kg/min | cum conv dose (conscious rats [1]): 65 µmol/kg

Cl.OC1CCN(C2CCCC[C@@H]2OCCc2ccccc2Br)C1 (stereo partly drawn) [Comparative Example Compound 24, (3R)/(3S)-1-{(1R,2R)/(1S,2S)-2-[2-(2-bromophenyl)-ethoxy]cyclohexyl}-pyrrolidin-3-ol hydrochloride]
convulsion dose (conscious rats [1]): 13 µmol/kg/min | cum conv dose (conscious rats [1]): 67 µmol/kg

Cl.OC1CCN([C@@H]2CCCC[C@@H]2OCCc2cccc3ccccc23)C1 (stereo partly drawn) [Comparative Example Compound 25, (3R)/(3S)-1-{(1R,2S)/(1S,2R)-2-[2-(1-naphthyl)ethoxy]-cyclohexyl}-pyrrolidin-3-ol hydrochloride]
convulsion dose (conscious rats [1]): 16 µmol/kg/min | cum conv dose (conscious rats [1]): 70 µmol/kg

Cl.OC1CCN(C2CCCC[C@@H]2OCCc2cccc3ccccc23)C1 (stereo partly drawn) [Comparative Example Compound 26, (3R)/(3S)-1-{(1R,2R)/(1S,2S)-2-[2-(1-naphthyl)ethoxy]-cyclohexyl}-pyrrolidin-3-ol hydrochloride]
convulsion dose (conscious rats [1]): 8 µmol/kg/min

Cl.O[C@@H]1CCN(C2CCCC[C@@H]2OCCc2ccccc2C(F)(F)F)C1 (stereo partly drawn) [Comparative Example Compound 27]
convulsion dose (conscious rats [1]): 16 µmol/kg/min

Cl.OC1CCN(C2CCCC[C@@H]2OCCn2ccc3ccccc32)C1 (stereo partly drawn) [Comparative Example Compound 28]
convulsion dose (conscious rats [1]): 16 µmol/kg/min

c1ccc2cc(CCO[C@H]3CCCCC3N3CCOCC3)ccc2c1 (stereo partly drawn) [Comparative Example Compound 30, (1R,2R)/(1S,2S)-[2-(4-morpholinyl)-1-(2-naphihenethoxy)]-cyclohexane monohydrochloride]
cum conv dose (conscious rats [1]): 85 µmol/kg

c1ccc2c(CCO[C@H]3CCCCC3N3CCOCC3)cccc2c1 (stereo partly drawn) [Comparative Example Compound 31, (1R,2R)/(1S,2S)-[2-(4-morpholinyl)-1-(1-naphthenethoxy)]-cyclohexane]
convulsion dose (conscious rats [1]): 16 µmol/kg/min | cum conv dose (conscious rats [1]): 93 µmol/kg

Brc1ccc(CCO[C@H]2CCCCC2N2CCOCC2)cc1 (stereo partly drawn) [Comparative Example Compound 32]
convulsion dose (conscious rats [1]): 12 µmol/kg/min | cum conv dose (conscious rats [1]): 91 µmol/kg

c1ccc2cc(OCCO[C@H]3CCCCC3N3CCOCC3)ccc2c1 (stereo partly drawn) [Comparative Example Compound 33, (1R,2R)/(1S,2S)-[2-(4-morpholinyl)-1-[2-(2-naphthoxy)ethoxy]]-cyclohexane]
convulsion dose (conscious rats [1]): 8 µmol/kg/min

Brc1ccc(OCCO[C@H]2CCCCC2N2CCOCC2)cc1 (stereo partly drawn) [Comparative Example Compound 34, (1R,2R)/(1S,2S)-[2-(4-morpholinyl)-1-[2-(4-bromophenoxy)-ethoxy]]cyclohexane]
cum conv dose (conscious rats [1]): 83 µmol/kg

COc1ccc(CCO[C@H]2CCCCC2N2CCOCC2)cc1OC (stereo partly drawn) [Comparative Example Compound 35, (1R,2R)/(1S,2S)-[2-(4-morpholinyl)-1-(3,4-dimethoxy-phenethoxy)]-cyclohexane]
convulsion dose (conscious rats [1]): 16 µmol/kg/min

c1ccc2c(CCO[C@H]3CCCCC3N3CCOCC3)csc2c1 (stereo partly drawn) [Comparative Example Compound 36]
convulsion dose (conscious rats [1]): 8 µmol/kg/min | cum conv dose (conscious rats [1]): 65 µmol/kg

c1cc(CCO[C@H]2CCCCC2N2CCOCC2)c2ccsc2c1 (stereo partly drawn) [Comparative Example Compound 37]
convulsion dose (conscious rats [1]): 8 µmol/kg/min | cum conv dose (conscious rats [1]): 54 µmol/kg

Brc1cccc(CCO[C@H]2CCCCC2N2CCOCC2)c1 (stereo partly drawn) [Comparative Example Compound 38, (1R,2R)/(1S,2S)-[2-(4-morpholinyl)-1-(3-bromophenethoxy)]-cyclohexane]
convulsion dose (conscious rats [1]): 16 µmol/kg/min

Brc1ccccc1CCO[C@H]1CCCCC1N1CCOCC1 (stereo partly drawn) [Comparative Example Compound 39, (1R,2R)/(1S,2S)-[2-(4-morpholinyl)-1-(2-bromophenethoxy)]-cyclohexane]
convulsion dose (conscious rats [1]): 16 µmol/kg/min

Clc1ccc(CCO[C@H]2CCCCC2N2CCOCC2)cc1Cl (stereo partly drawn) [Comparative Example Compound 40, (1R,2R)/(1S,2S)-2-(4-morpholinyl)-1-(3,4-dichlorophenethoxy)cyclo-hexane]
convulsion dose (conscious rats [1]): 16 µmol/kg/min

Cl.O=C1CCN(C2CCCC[C@@H]2OCCc2c(Cl)cccc2Cl)C1 (stereo partly drawn) [Comparative Example Compound 41, (1R,2R)/(1S,2S)-2-(3-ketopyrrolidinyl)-1-(2,6-dichlorophenethoxy)cyclo-hexane monohydrochloride]
convulsion dose (conscious rats [1]): 32 µmol/kg/min | cum conv dose (conscious rats [1]): 190 µmol/kg

CC(=O)OC1CCN([C@@H]2CCCCC2OCCc2cccc3ccccc23)C1.Cl (stereo partly drawn) [Comparative Example Compound 43, (1R,2R)/(1S,2S)-2-(3-acetoxypyrrolidinyl)-1-(1-naphthenethoxy)cyclo-hexane monohydrochloride]
convulsion dose (conscious rats [1]): 8 µmol/kg/min | cum conv dose (conscious rats [1]): 65 µmol/kg

Cl.Clc1cccc(Cl)c1COC1CCCC[C@H]1N1CCOCC1 (stereo partly drawn) [Comparative Example Compound 44, (1R,2R)/(1S,2S)-2-(4-morpholinyl)-1-[(2,6-dichlorophenyl)methoxy]-cyclohexane monohydrochloride]
convulsion dose (conscious rats [1]): 16 µmol/kg/min | cum conv dose (conscious rats [1]): 97 µmol/kg

Cl.O=C1CCN([C@@H]2CCCCC2OCc2c(Cl)cccc2Cl)C1 (stereo partly drawn) [Comparative Example Compound 45, (1R,2R)/(1S,2S)-2-(3-ketopyrrolidinyl)-1-[(2,6-dichlorophenyl)methoxy]-cyclohexane monohydrochloride]
convulsion dose (conscious rats [1]): 32 µmol/kg/min

Cl.OC1CCN(C2CCCC[C@@H]2OCCc2c(Cl)cccc2Cl)C1 (stereo partly drawn) [Comparative Example Compound 46, (1R,2R)/(1S,2S)-2-(3-hydroxypyrrolidinyl)-1-(2,6-dichlorophenethoxy)cyclo-hexane monohydrochloride]
convulsion dose (conscious rats [1]): 8 µmol/kg/min

Cl.O=C1CCN(C2CCCC[C@@H]2OCC(c2ccccc2)c2ccccc2)C1 (stereo partly drawn) [Comparative Example Compound 47, (1R,2R)/(1S,2S)-2-(3-ketopyrrolidinyl)-1-(2,2-diphenylethoxy)cyclo-hexane monohydrochloride]
convulsion dose (conscious rats [1]): 21 µmol/kg/min

Cl.Clc1cccc(Cl)c1CCOC1CCCC[C@H]1N1CCSC1 (stereo partly drawn) [Comparative Example Compound 48, (1R,2R)/(1S,2S)-2-(3-thiazolidinyl)-1-(2,6-dichlorophenethoxy)cyclo-hexane monohydrochloride]
convulsion dose (conscious rats [1]): 43 µmol/kg/min

Cl.Clc1cccc(Cl)c1CCO[C@@H]1CCCC[C@H]1N1CCSC1 [Comparative Example Compound 48, (1R,2R)/(1S,2S)-2-(3-thiazolidinyl)-1-(2,6-dichlorophenethoxy)cyclo-hexane monohydrochloride]
convulsion dose (conscious rats [1]): 8 µmol/kg/min | cum conv dose (conscious rats [1]): 44.4 µmol/kg

COc1ccc(CCO[C@H]2CCCC[C@@H]2N2CC[C@@H](O)C2)cc1OC.Cl [Compound 2, (1S,2S)-2-[(3R)-Hydroxypyrrolidinyl]-1-(3,4-dimethoxyphenethoxy)-cyclohexane monohydrochloride]
convulsion dose (conscious rats [2]): 64 µmol/kg/min

COc1ccc(CCO[C@H]2CCCCC2N2CCC(O)C2)cc1OC (stereo partly drawn) [Compound 3, (1R,2R)/(1S,2S)-2-[(3R)/(3S)-Hydroxypyrrolidinyl]-1-(3,4-dimethoxyphenethoxy)-cyclohexane monohydrochloride]
convulsion dose (conscious rats [2]): 64 µmol/kg/min

COc1ccc(CCO[C@H]2CCCCC2N2CC[C@@H](O)C2)cc1OC.Cl (stereo partly drawn) [Compound 4, (1R,2R)/(1S,2S)-2-[(3R)-Hydroxypyrrolidinyl]-1-(3,4-dimethoxyphenethoxy)-cyclohexane monohydrochloride]
convulsion dose (conscious rats [2]): 64 µmol/kg/min

COc1ccc(CCO[C@H]2CCCCC2N2CC[C@H](O)C2)cc1OC.Cl (stereo partly drawn) [Compound 5, (1R,2R)/(1S,2S)-2-[(3s)-Hydroxypyrrolidinyl]-1-(3,4-dimethoxyphenethoxy)-cyclohexane monohydrochloride]
convulsion dose (conscious rats [2]): 64 µmol/kg/min

COc1ccc(CCO[C@@H]2CCCC[C@H]2N2CC[C@H](O)C2)cc1OC.Cl [Compound 6, (1R,2R)-2-[(3S)-Hydroxypyrrolidinyl]-1-(3,4-dimethoxyphenethoxy)-cyclohexane monohydrochloride]
convulsion dose (conscious rats [2]): 64 µmol/kg/min
